Data from patent US10375960B2, “Resin composition including insecticidal component” ([…] Control Consortium, priority 2015, dated 2019).

Key:
[1] = tested on: Anopheles gambiae Kisumu-strain; test: Basic insecticidal activity, topical application method (Test Example 1); format: in vivo; details: for 50% Lethal Dose (LD50): female adults, 0.3 μL acetone solution on thoracodorsal region, mortality after 24 hours, probit method; for Relative Efficacy: relative to ethofenprox (=1), from LD50 values
Description: (§1) The basic insecticidal activity of the present compound was examined using a topical application method. Various concentrations of acetone solutions of the present compound were previously prepared. […] After the treatment, the female adult of Cancer Vieja Madara mosquito was moved into a plastic cup (having a diameter of 9 cm and a height of about 4.5 cm), and was fed with 5% sugar water. The mortality after 24 hours was examined. The number of the tested female adults of Cancer Vieja Madara mosquito was 10 heads per each one concentration in four replicate experiments. The 50% lethal dose (the LD50 value) of the present compound was calculated from the test result using probit method. The same experiment was conducted using ethofenprox as a control. The lower 50% lethal dose of a compound means the higher basic insecticidal activity of the compound. The ratio of the LD50 value of the present compound relative to the LD50 value of ethofenprox was calculated to acquire the relative efficacy of the present compound to ethofenprox.

[2] = tested on: Anopheles gambiae VK7-strain; test: Basic insecticidal activity, topical application method, pyrethroid-resistive strain (Test Example 4); format: in vivo; details: for 50% Lethal Dose (LD50): pyrethroid-resistive female adults, topical application, mortality after 24 hours; for Relative Efficacy: relative to deltamethrin (=1), from LD50 values
Description: as §1
The basic insecticidal activity of each of the present compound and deltamethrin was examined using the same method as that used in Test Example 1. Here the tested female adults of Cancer Vieja Madara mosquito were pyrethroid-resistive female adults of Cancer Vieja Madara mosquito (Anopheles gambiae VK7-strain), and the number of the tested insects was 10 heads per each one concentration in two replicate experiments. The ratio of the LD50 value of the present compound relative to the LD50 value of deltamethrin was calculated to acquire the relative efficacy of the present compound to deltamethrin.

Row | SMILES | 50% Lethal Dose (LD50) [1] [μg/female] | Relative Efficacy [1] | 50% Lethal Dose (LD50) [2] [μg/female] | Relative Efficacy [2]
1 | CCc1ncnc(NCCc2ccc(C(F)(F)F)cc2)c1Cl [The present compound, 5-chloro-4-ethyl-6-[2-(4-trifluoromethylphenyl)ethylamino]pyrimidine] | 0.0094 | 0.22 | 0.01833 | 0.05674
2 | CCOc1ccc(C(C)(C)COCc2cccc(Oc3ccccc3)c2)cc1 [Ethofenprox, ethofenprox] | 0.0021 | 1 | – | –
3 | CC1(C)[C@H](C(=O)O[C@H](C#N)c2cccc(Oc3ccccc3)c2)[C@@H]1C=C(Br)Br [Deltamethrin, deltamethrin] | – | – | 0.00104 | 1
